Results reported in patent publication US20260152777A1, “METHOD FOR PRODUCING EPIGALLOCATECHIN GALLATE MONOGLUCOSIDE” (GIVAUDAN SA, priority 2022, published 2026).
“Also recorded” adds a separate entry of the source. Where two headings read alike, the source gives them in different places.

Columns and labels:
[1] = tested on: spontaneous formation of Advanced Glycation End-products (AGEs); experiment: Anti-glycation in tubo assay (BSA + ribose, fluorescence); type: biochemical; details: 17 h at 37° C.; for IC50: BSA + ribose, read-out: IC50 in well (concentration which inhibits AGEs formation by half)
Experimental: The anti-glycation effect was evaluated using an in tubo assay to measure the spontaneous formation of Advanced Glycation End-products (AGEs). This assay was conducted on a 96-wells microplate. […] The extracts were diluted in sodium phosphate buffer (0.1 M, pH 7.4). Several dilutions were tested. Each diluted extract was run in triplicate. A standard range of aminoguanidine was used as inhibitor reference (positive control). A mixture of the sodium phosphate buffer and BSA was used to validate the experiment and a mixture of sodium phosphate buffer, BSA and ribose was used as the positive control. Two blanks were carried out for the extract: • with phosphate buffer, BSA and extract • with phosphate buffer, ribose and extract The microplate was agitated and incubated for 17 h at 37° C. The fluorescence reading was performed with ? excitation 340 nm and ? emission 420 nm. The anti-glycation activity of the extract was calculated as follows: [formula] FI: Fluorescence of tested extract; blank extract (ribose or BSA); positive control; negative control. Based on the above measurements and calculation, the IC50, i.e. the concentration of the extract which inhibits AGEs formation by half, was calculated.

[2] = Skin penetration by Raman spectroscopy (ex vivo); type: in vitro ADME, human
Experimental: At the end of the incubation period, the skin explants were frozen in Optimal Cutting Temperature (OCT; VWR) at −80° C. and then cut longitudinally using a cryotome with a thickness of 20 μm. For each explant, 3 tissue sections were selected and deposited on a CaF2 support for Raman imaging analysis. The processing of corrected data maps was performed by using a software based on least squares fitting method that operates in the Matlab environment. This method involves mathematical modeling of reference spectra in the overall spectral image to determine the contribution and distribution of these spectra within the image. The reference spectra were the modelled spectra of the following products: Aglycone, glucoside mixture, 4′-O-α-monoglucoside and untreated skin control.

[3] = tested on: Normal Human Epidermal Keratinocytes (NHEKs); experiment: Antioxidant activity: ROS production in keratinocytes stressed with TBP (DCFH-DA probe); type: cell-based; details: at 0.1%; TBP column = 100, Untreated = 27.5
Experimental: A 96 wells-plate was coated with a collagen I solution at 50 μg/ml. Normal Human Epidermal Keratinocytes (NHEKs) were seeded at 20′000 cells per well with four replicates. Cells were incubated for 24 hours in complete medium (Epilife, Gibco) supplemented with Human keratinocyte growth supplements (HKGS) factor (Gibco) and 1% antibiotics (Sigma) at 37° C. with 5% CO2. […] The evolution of the fluorescence was followed for 1 hour.

[4] = tested on: Lactobacillus acidophilus; details: 1%, culture supernatant, NMR, vs untreated
Experimental: The supernatants of the cultures previously described in Example 10, both of the untreated strain culture and the culture of L. acidophilus treated with 1% EGCG MONOG were kept and frozen at −80° C. before analysis using high-field NMR. For each of these two conditions, three samples were analyzed to assess the tests reproducibility (n=3).
For each sample, 400 μl of supernatant were taken and 100 μl of D2O/TSP (3-(trimethylsilyl)propionic-2,2,3,3-d4 acid sodium salt, internal reference) were added at a concentration of 1 g/l. The samples were analyzed by high field ^1H NMR on a Bruker ASCEND 500 spectrometer operating at a proton frequency of 500 MHz using a 5 mm cryosonde probe. NMR spectra were calibrated to TSP-d4 at 0 ppm using Topspin software version 4.3.0 (Bruker Biospin, Germany). Quantification of metabolites was performed by utilizing the internal standard (TSP-d4) added at a known concentration. Compounds were quantified by the relative ratio of the intensities of their peak integrals and those of the internal standard.

melanogenesis pathway = details: 0.01% (v/v), 24 h, NHEK-NHEM co-culture, normalized to B2M
Experimental: To evaluate the impact of preparation of the present invention on melanogenesis, a co-culture study with keratinocytes and melanocytes was conducted.
The cell culture was realized with primary cells isolated from biopsies. Cells were co-cultured with a ratio of 10 keratinocytes to 1 melanocyte. Both cell types were derived from a donor.
The product EGCG MONOG 0.01% was filtered and diluted in Keratinocyte Growth Medium 2 (supplied by Promocell).
Cells were seeded in 6-well plates in the presence of the Keratinocyte Growth Medium 2 for 24 h. After seeding, a treatment in the presence of EGCG MONOG 0.01% was applied for 24 h. Untreated wells were used as a basal reference in order to compare the impact of EGCG MONOG and gene expression after 24 h of incubation.
After treatment, the RNA from the cells were extracted using TRIzol™ (available from Sigma) and reverse-transcribed into cDNA. The cDNA was mixed with different primers of interest representative of the melanogenesis pathway (PrimePCR custom plate, pigmentation, Biorad). The expression of the mRNA was measured by semi-quantitative PCR on a Bio-Rad CFX96Real Time PCR System (available from BioRAD). The expression level of the mRNA was calculated and normalized with reference gene (B2M).
The values were reported relative to the untreated control to express an activating or inhibitory effect.

O=C(O[C@@H]1Cc2c(O)cc(O)cc2O[C@@H]1c1cc(O)c(O[C@H]2O[C@H](CO)[C@@H](O)[C@H](O)[C@H]2O)c(O)c1)c1cc(O)c(O)c(O)c1 [epigallocatechin gallate 4′-O-α-monoglucoside]
IC50 ([1]; listed as ECGC monoglucoside): 133 µM
IC50 [1]: 118 µM
Inhibition AGE's ([1]; tested concentration 0.08 mM): 31.01%
Inhibition AGE's ([1]; tested concentration 0.4 mM): 53.22%
Inhibition AGE's ([1]; tested concentration 1 mM): 81.54%
Inhibition AGE's ([1]; tested concentration 8 mM): 109.26%
skin penetration higher than that of the aglycone ([2]; 2%, 8 hours of topical application, skin explants, relative to aglycone): +90%
skin penetration higher than that of the glucoside mixture ([2]; 2%, 8 hours of topical application, skin explants, relative to glucoside mixture): +20%
quantity accumulated in the skin relative to the aglycone ([2]; at depth of about 65 µm): almost double that of the aglycone
bioavailability in the skin ([2]; compared to aglycone (and glucoside mixture)): better skin bioavailability than the aglycone and the glucoside mixture; also recorded: much higher bioavailability in the skin than the respective aglycones
depth of accumulation in the skin / skin penetration depth ([2]; skin explants, Raman): about 65 µm
ROS, Mean (% of untreated) [3]: 33.75 % of untreated
decrease of consumption of sugars by L. acidophilus [4]: 17%
increase of Trigonelline released by L. acidophilus [4]: up to 65%
increase of polysorbate consumption by L. acidophilus [4]: 51%
AP3B1 mRNA expression vs untreated co-culture (melanogenesis pathway): −59%
DTNBP1 mRNA expression vs untreated co-culture (melanogenesis pathway): −59%
EDNRB mRNA expression vs untreated co-culture (melanogenesis pathway): −68%
F2RL1 mRNA expression vs untreated co-culture (melanogenesis pathway): −49%
KIT mRNA expression vs untreated co-culture (melanogenesis pathway): −93%
LYST mRNA expression vs untreated co-culture (melanogenesis pathway): −48%
MC1R mRNA expression vs untreated co-culture (melanogenesis pathway): −96%
MITF mRNA expression vs untreated co-culture (melanogenesis pathway): −108%
PMEL mRNA expression vs untreated co-culture (melanogenesis pathway): −212%
SOX10 mRNA expression vs untreated co-culture (melanogenesis pathway): −60%
TYR mRNA expression vs untreated co-culture (melanogenesis pathway): −58%
